Among the data in the NIST ThermoML archive (doi:10.1021/je800600q) are Normal melting temperature values, retold here.

The conditions of the series: Crystal; DTA.

Numbers after ± are expanded uncertainties.

For `CCc1occc(=O)c1O` [2-ethyl-3-hydroxy-4H-pyran-4-one], the Normal melting temperature worked out at 91.02 ± 0.5 °C.
